Source: patent US20190335746A1, “ANTIMICROBIAL GAS RELEASING AGENTS AND SYSTEMS AND METHODS FOR USING THE SAME” (priority 2016, published 2019)

Experiment: Spiking the product matrices with ClO2 gas
Details: product matrices spiked with ClO2 gas
From the text: Headspace samples underwent a colorimetric analysis for ClO2 gas.

In the case of `[O][Cl+][O-]` [ClO2 gas, chlorine dioxide], the “chlorine dioxide in the residual juice and tomato samples after spiking” value is reported as “no detectable chlorine dioxide”.
